Results taken from patent EP1785721A1, “Microbial, viral and mammalian susceptibility to agents that affect cell growth and metabolism, and mode of action of compounds” (Stratos Bio Ltd., priority 2005, dated 2007).
Read-outs that look alike come from different tables or passages of the source. Each block holds one compound with its values, some of them ahead of it.

Key:
B. pumilus = experiment: MIC determination, two-fold serial dilutions assayed for turbidity; format: cell-based, Bacillus pumilus
Procedure: (§1) MIC and MBC's were determined as follows: • Two-fold serial dilutions of antibiotic in their respective media were incubated for 16-24h (depending on the bacterial strain) and assayed for turbidity. A tube with a turbid suspension was not inhibited and a clear suspension with the lowest concentration of antibiotic showing no growth was designated MIC. MBC's were checked as follows: 0.01ml of each suspension from tubes showing no growth were added to agar plates and incubated for 48H; the lowest concentration of antibiotic from which no colonies formed was designated MBC.

[1] = system: Bordetella bronchiseptica; experiment: MIC and MBC determination, two-fold serial dilutions assayed for turbidity; format: cell-based
Procedure: as §1

Micrococcus flavus [2] = experiment: as above; format: cell-based
Procedure: as §1

E.coli = experiment: as above; format: cell-based
Procedure: MIC and MBC's were determined as follows: • Two-fold serial dilutions of antibiotic in their respective media were incubated for 16-24h (depending on the bacterial strain) and assayed for turbidity.
A tube with a turbid suspension was not inhibited and a clear suspension with the lowest concentration of antibiotic showing no growth was designated MIC. MBC's were checked as follows: 0.01ml of each suspension from tubes showing no growth were added to agar plates and incubated for 48H; the lowest concentration of antibiotic from which no colonies formed was designated MBC.
To assay the nitrofurans at a concentration where the maximum sensitivity to E.coli could be achieved MIC's were determined for each compound. […] The respiratory medium was the one described previously at pH7. […] None of the nitrofurans were water soluble so prior to either MIC determination or incubation an accurately weighed sample of each compound was dissolved in 0.4ml DMSO and then 1.6ml H2O was added. When this solution was added to either tubes containing nutrient broth or to the fermentation vessels emulsions resulted. Good stirring minimised the problem in the calorimeter. No compensation was made for DMSO when diluting the samples as high concentrations of DMSO could falsify the results. […] Two types of responses were observed. […] No dependence of MIC on either RMM or power could be observed.

Bacillus pumilus = experiment: Flow microcalorimetry (p-t curves) of growing culture; format: cell-based
Description: (§2) • a) For B. pumilus a simple glucose/salts medium was employed with a glucose concentration of 0.1 % w/v. • b) For Bord. bronch. The above salts medium was used with the addition of nicotinic acid, methionine and glutamic acid. Glutamic acid was used at a concentration of 0.2% w/v. • c) For M. flavus a semidefined medium was employed, using the same salts as a B. pumilus but also Na-citrate, biotin and protease peptone. In the calorimeter a concentration of 0.4% protease peptone was used. All medium constituents (except protease) were analytical reagents. The calorimetric medium was therefore a final concentration of 100ml of either solution a, b or c freshly autoclaved for 15 mins exactly at 121°C, 151b/sq inch. Glucose was added to the appropriate solution after autoclaving.
(§3) To the vertical face of the vessel close to its base, equidistantly spaced around the circumference, ports were fitted for an oxygen electrode and for sampling/inoculation. The fermenter was closed with a flat flanged glass lid which had five ports accommodating respectively, gas inlet tube, gas exhaust (via air condenser), inlet and outlet flow-lines to and from the calorimeter. The fermenter and lid was sealed with a p.t.f.e. gasket and clamped with a metal clip. The fermenter was placed on a magnetic stirring unit in a water jacket which allowed circulation of the thermostatically controlled water at 30°C or 37°C. The fermenter which contained a Teflon coated magnetic stirring bar, was sterilised by autoclaving.
(§4) For a typical calorimetric incubation the medium was passed through the calorimetric vessel at the same flow rate and temperature as those used in the experiment to establish a steady baseline deflection. The following operations then took place to a strict timetable. The liquid nitrogen stored ampoule was thawed at 38°C for 3 min and then stirred for 20 sec on a whirlimixer. The bacterial suspension (0.5-1.5ml) volumes was inoculated into the medium (100ml) two minutes after completion of thawing. A Gilson automatic pipette was used for inoculation. The calorimeter inlet flow-line was placed in the incubation medium 30 seconds after inoculation. The flowing incubation medium reached the calorimetric vessel two min after inlet flow-line insertion. At this time the recording of the p-t curves was started. Eight min after inoculation the outflow from the calorimeter was returned to the fermenter (after the "baseline" medium had run to waste but before the inoculated medium ran to waste) thus making a closed system. Aeration was started as soon as the inlet tube was inserted in the fermenter. Microbiological purity of the culture was checked by plating out a sample of the culture at the end of each incubation on nutrient agar (lab M).
(§5) The output of calorimetric experiments is a plot of power (energy evolution per unit of time) as a function of time. The unit of power (p) is the Watt (W) and the unit of time is the hour (h). In some experiments seconds (s) were used as time unit.
P-t curves of B. pumilus at 30µV full scale deflection (471.15µW) show a logarithmic increase in power. […] After 10h growth the power output was: 17% for 0.05% glucose, 22% for 0.2% glucose and 18% for 0.1% glucose. It was decided to use 0.1% glucose for microcalorimetrically monitored growth experiments, because use of 0.2% glucose could result in the bacterium clumping in the calorimetric chamber or in the Teflon tubes leading to and from the calorimeter. In 0.05% glucose B. pumilus grew slightly slower and to a smaller percentage total deflection than in the 0.1 % glucose incubations. The p-t curve of 0.1 % glucose on 10µV (157.05µW full scale deflection) was obtained.

Micrococcus flavus [3] = experiment: as above; format: cell-based; settings: bacterial concentration printed '0?'
Description: as §2
To the vertical face of the vessel close to its base, equidistantly spaced around the circumference, ports were fitted for an oxygen electrode and for sampling/inoculation. The fermenter was closed with a flat flanged glass lid which had five ports accommodating respectively, gas inlet tube, gas exhaust (via air condenser), inlet and outlet flow-lines to and from the calorimeter. The fermenter and lid was sealed with a p.t.f.e. gasket and clamped with a metal clip. […]

[4] = system: Bordetella bronchiseptica; experiment: as above; format: cell-based
Description: as §2, §3, §4, §5
After successful freezing of Bord. bronch p-t curves for growth in different concentrations of glutamic acid from 0.1%-0.5% were obtained. It was concluded that a medium containing 0.2% glutamic acid would be sufficient for a good deflection in the microcalorimeter minimising the possibility of the bacteria clogging in the microcalorimetric cell or in the teflon tubes leading to and from the microcalorimetric cell. A pH of 7 was used in all the following experiments as this is the optimum pH for polymyxin - lipid binding.
It was of vital importance to maintain a constant oxygen tension; this was achieved by using saturation concentrations of oxygen. It was decided to use the height of the small peak as full scale deflection for the antibiotic assay as the increase in power was exponential up to this point and the peak occurred at a convenient time. This choice of assay point was empirical. The inoculum was 1.1 ± 0.06 x 10^8 cfu/ml for all the microclalorimetric incubations. […]

respiring E.coli = experiment: Flow microcalorimetry (p-t curves) of respiring cells in glucose buffer; format: cell-based
Procedure: The respiration experiments were carried out in glucose buffer at different pH.
The nitrofurans only differed in the length of their side chains (e.g. methyl, propyl etc.).
To assay the nitrofurans at a concentration where the maximum sensitivity to E.coli could be achieved MIC's were determined for each compound. […] The respiratory medium was the one described previously at pH7. […] No compensation was made for DMSO when diluting the samples as high concentrations of DMSO could falsify the results.

[5] = Animal case study, antibiotic treatment of a scratch to the eye; format: in vivo; settings: 30 days of treatment, domestic cat with a scratch to the eye
Procedure: A domestic cat was given a mixture of antibiotics as eye drops in response to a scratch to the eye. […] Previously the cat had never been given milk (as many animals are allergic to cow's milk). The cat was now given full cream milk as part of a regimen to promote weight gain (the cat also continued to eat its usual amount of daily cat food throughout the period of weight loss). Initially weight was gained but within 24 hours weight loss resumed (presumably because the pathogenic bacteria/viruses had found a way of utilising lactose). An autopsy indicated bone-cancer as cause of death. The body wasting caused by the weight loss was very similar to that observed in early AIDS cases. However the cat had been regularly vaccinated against HTLV 1 through its 16 year life (and had never been ill in that period).

- effect at MIC (B. pumilus; 5.1 x 10^6 cfu/ml): bacteriostatic
- MIC (B. pumilus; 5.1 x 10^6 cfu/ml, inoculum used in the microcalorimetric incubations): 2 µg/mL
- MIC (B. pumilus; inoculum not given): MIC NEO 1 ug/ml
- MIC (B. pumilus; inoculum of 1x10^5 cfu/ml): 0.1 µg/mL
- effect at MIC (B. pumilus; inoculum of 1x10^5 cfu/ml): bacteriostatic
- MIC [1]: MIC NEO 0.25 ug/ml
- MIC (Micrococcus flavus [2]): MIC NEO 4 ug/ml
- MIC (E.coli): 500 µg/mL
- MIC (E.coli; listed as NEO): NEO 5900 ug/ml
Compound: NC[C@@H]1O[C@H](O[C@H]2[C@@H](O)[C@H](O[C@@H]3[C@@H](O)[C@H](N)C[C@H](N)[C@H]3O[C@H]3O[C@H](CN)[C@@H](O)[C@H](O)[C@H]3N)O[C@@H]2CO)[C@H](N)[C@@H](O)[C@@H]1O.O=S(=O)(O)O [Neomycin sulphate]
- MBC (E.coli): NEO 5900 ug/ml
- power output (Bacillus pumilus; 0.5 and 1 x MIC (1-2 µg/ml) added after an increase of 10% of full scale deflection): the same effect was observed
- power output (Bacillus pumilus; 0.5 x MIC (1µg/ml) added after a 25% increase power output, 2-4h after addition): massive power output
- power output (Bacillus pumilus; added after an increase in power output of 15% of full scale deflection): only marginally larger than that observed for the normal growth curve
- heat output (Bacillus pumilus; concentrations of < 1ug/ml or in combinations with other antibiotics, organism not named at this place): increased heat output
- power output (Bacillus pumilus; higher concentrations of antibiotic (above 1 x MIC), added after 10% of full scale deflection): a decrease in power output was observed
- Observed effect on p-t curves (Micrococcus flavus [3]; 4 ug/ml): No effect on p-t curve
- Observed effect on p-t curves ([4]; 0.25ug/ml added at 50 % of p-t curve): No effect on p-t curve
- range of linear dose-response (respiring E.coli; respiration): 10 to 100 µg/mL
- Observed effect on p-t curves (respiring E.coli; respiration, 500 ug/ml): Increase in heat output
- range of linear relationship between dose and the reciprocal of increase in response from the control curve (respiring E.coli; respiring E.coli): 20 to 100 µg/mL
- heat output (respiring E.coli; respiring E.coli, all concentrations): increased heat output
- effect on power (respiring E.coli; respiring E.coli, pH 8): caused an increase in power

Compound: CN[C@H](CC(C)C)C(=O)N[C@H]1C(=O)N[C@@H](CC(N)=O)C(=O)N[C@H]2C(=O)N[C@H]3C(=O)N[C@H](C(=O)N[C@H](C(=O)O)c4cc(O)cc(O)c4-c4cc3ccc4O)[C@H](O)c3ccc(c(Cl)c3)Oc3cc2cc(c3O[C@@H]2O[C@H](CO)[C@@H](O)[C@H](O)[C@H]2O[C@H]2C[C@](C)(N)[C@H](O)[C@H](C)O2)Oc2ccc(cc2Cl)[C@H]1O [vancomycin]
- effect of treatment on the eye [5]: without any effect to the eye

Compound: Polymyxin B sulphate
- MIC (B. pumilus; inoculum not given): POL 20 ug/ml
- MBC [1]: Ug/ml MIC & MBC 2 ug/ml
- MIC [1]: Ug/ml MIC & MBC 2 ug/ml
- MIC ([1]; listed as POL): POL 2ug/ml
- MBC ([1]; listed as polymyxin B sulphate): 2 µg/mL
- MIC ([1]; listed as polymyxin B sulphate): 2 µg/mL
- MIC (Micrococcus flavus [2]): POL 2ug/ml
- MBC (E.coli): 6.3 µg/mL
- MIC (E.coli): 6.3 µg/mL
- MBC (E.coli; listed as POL): POL 6.3ug/ml
- MIC (E.coli; listed as POL): POL 6.3ug/ml
- Observed effect on p-t curves (Bacillus pumilus; 20ug/ml, within 9 hours, bacterial concentration printed '0?'): Within 9 hours growth was inhibited completely
- Observed effect on p-t curves (Micrococcus flavus [3]; 2ug/ml): Slightly delayed peak
- Observed effect on p-t curves ([4]; 0.07 ug/ml added at 18 % of p-t curve): No effect on growth curve
- response ([4]; 0.033 x MIC (0.07 µg/ml)): no response to the antibiotic was observed
- Comments ([4]; 0.35 -2 ug/ml added at 18 % of p-t curve): All curves return to baseline confirmed bacteriocidal action
- Observed effect on p-t curves ([4]; 0.35 -2 ug/ml added at 18 % of p-t curve, 10 min after addition): Linear log dose response 10 min after addition of antibiotic CV 2.5%
- p-t curve ([4]; 0.5 x MIC, within 10 min of addition): sharp decline in heat output
- mode of action ([4]; at MIC values): bactericidal
- decline of the p-t curve ([4]; concentration larger than 3.5 x MIC): the declines were identical
- reversibility of the effect ([4]; most concentrations of antibiotic, decline in power decreased to a baseline value): irreversible
- time to observable response after addition of the antibiotic ([4]; usually): ≤ 5 min
- Comments (respiring E.coli; respiration, 6.3 ug/ml): Bacteriocidal action demonstrated
- Observed effect on p-t curves (respiring E.coli; respiration, 6.3 ug/ml): Reduced height of p-t curve initially and returned to baseline within I hour
- sensitivity of the assay (respiring E.coli; respiring E.coli): 3 µg/mL
- effect on p-t curve (respiring E.coli; respiring E.coli, pH 7): reduced the initial peak height and thereafter the p-t curve returned to baseline
